# Patent US20070049564A1 (Wyeth, priority 2005, published 2007)
# Where two headings read alike, the source gives them in different places.
# Assays:
# Staph. aureus Smith [1] = test: In vitro activity (MIC) against Staph. aureus Smith; format: cell-based; settings: Staphylococcus aureus; Table 8
# Staph. aureus Smith [2] = test: In vivo activity (oral, iv; ED50) against Staph. aureus Smith in mice
# Experimental: Representative examples of compounds of Formula I were tested for the oral efficacy using S. aureus Smith in mice.
# Staph. = test: Range of MIC for Staph. strains, including MRSA; settings: for MIC: Staphylococcus aureus, MRSA
# E. coli = test: Range of MIC for E. coli strains; settings: for MIC: Escherichia coli
# S. aureus GC 1131 = test: MIC, broth microdilution
# E. coli GC 2270 = test: MIC, broth microdilution
# E. coli GC 1073 = test: MIC, broth microdilution
# E. coli GC 4559 = test: MIC, broth microdilution
# Salmonella spp. GC 235 = test: MIC, broth microdilution
# Experimental: (§1) Antimicrobial susceptibility testing. The in vitro activities of the antibiotics are determined by the broth microdilution method as recommended by the National Committee for Clinical Laboratory Standards (NCCLS) (1). Mueller-Hinton II broth (MHBII)(BBL Cockeysville, Md.) is the medium employed in the testing procedures. Microtiter plates containing serial dilutions of each antimicrobial agent are inoculated with each organism to yield the appropriate density (10^5 CFU/ml) in a 100 μl final volume. The plates are incubated for 18-22 hours at 35° C. in ambient air.
# (§2) Representative compounds were first incubated in mouse serum for an hour prior to the in vitro testing against a panel of selected gram-positive and gram-negative bacteria strains. All compounds were also pre-incubated in water for an hour prior to testing as control.
# S. agalactiae GC 4564 = test: MIC, broth microdilution
# S. aureus GC 6335 = test: MIC, broth microdilution
# E. coli GC 2236 = test: MIC, broth microdilution
# S. cholerasius GC 1355 = test: MIC, broth microdilution
# Experimental: as §1
# (§3) Presented in Tables I-XIII are representative compounds of Formula I which were evaluated against a panel of 40 selected gram-positive and gram-negative bacteria strains by pre-incubation in water, mouse serum or human serum. Representative compounds were first incubated in mouse serum for an hour prior to the in vitro testing against a panel of selected gram-positive and gram-negative bacteria strains. All compounds were also pre-incubated in water for an hour prior to testing as control. Representative compounds of Formula I were incubated in human serum prior to MIC determination.
# S. aureus GC 6467 = test: MIC, broth microdilution
# E. coli GC 3226 = test: MIC, broth microdilution
# S. aureus GC 6466 = test: MIC, broth microdilution
# E. faecium GC 2243 = test: MIC, broth microdilution
# E. faecium GC 4556 = test: MIC, broth microdilution
# S. pneumoniae+ GC 4465 = test: MIC, broth microdilution
# E. coli GC 4560 = test: MIC, broth microdilution
# S. pneumoniae* GC 4465 = test: MIC, broth microdilution
# E. coli GC 2235 = test: MIC, broth microdilution
# E. faecalis GC 4555 = test: MIC, broth microdilution
# S. epidermidis GC 4935 = test: MIC, broth microdilution
# E. coli GC 6465 = test: MIC, broth microdilution
# Experimental: as §1, §2
# S. aureus GC 6469 = test: MIC, broth microdilution
# E. coli GC 2271 = test: MIC, broth microdilution
# Experimental: as §1, §2
# E. faecalis GC 2265 = test: MIC, broth microdilution
# E. faecalis GC 2242 = test: MIC, broth microdilution
# E. faecalis GC 2267 = test: MIC, broth microdilution
# S. aureus GC 4536 = test: MIC, broth microdilution
# S. aureus GC 2216 = test: MIC, broth microdilution
# S. pyogenes GC 4563 = test: MIC, broth microdilution
# E. coli GC 2231 = test: MIC, broth microdilution
# S. typhimurium GC 2172 = test: MIC, broth microdilution
# E. coli GC 2234 = test: MIC, broth microdilution
# c. albicans GC 3066 = test: MIC, broth microdilution
# E. coli GC 2203 = test: MIC, broth microdilution
# S. aureus GC 1079 = test: MIC, broth microdilution
# Salmonella spp. GC 566 = test: MIC, broth microdilution
# Experimental: as §1, §3
# E. coli GC 2272 = test: MIC, broth microdilution
# E. coli GC 2232 = test: MIC, broth microdilution
# E. coli GC 2233 = test: MIC, broth microdilution
# P. aeruginosa GC 2214 = test: MIC, broth microdilution
# [3] = Staphylococcus aureus, in Mus musculus, iv, read-out: ED50 SIV (Staph aureus Smith)
# [4] = Staphylococcus aureus, in Mus musculus, po, read-out: ED50 SOD (Staph aureus Smith)
# [5] = Staphylococcus aureus, in Mus musculus, po, read-out: ED50 Staph Smith SOD
# [6] = iv, read-out: ED50 Staph Smith SIV
# [7] = read-out: Range of MIC, Staph (Mouse Serum)
# [8] = read-out: Range of MIC, Staph (Water)
# [9] = read-out: Range of MIC, Staph. (mouse serum)
# [10] = read-out: Range of MIC, Staph. (water)
# [11] = 20 h, read-out: Range of MIC, E. coli (Mouse Serum)
# [12] = read-out: Range of MIC, E. coli (mouse serum)
compound,measurement,setting,value
"CCCN(CC(=O)Nc1cc(N(C)C)c2c(c1O)C(=O)C1=C(O)[C@]3(O)C(=O)C(C(N)=O)=C(O)[C@@H](N(C)C)[C@@H]3C[C@@H]1C2)C(=O)OCOC(=O)CC(C)(C)C [Example 35, ({[(2-{[(5aR,6aS,7S,10aS)-9-(aminocarbonyl)-4,7-bis(dimethylamino)-1,8,10a,11-tetrahydroxy-10,12-dioxo-5,5a,6,6a,7,10,10a,12-octahydrotetracen-2-yl]amino}-2-oxoethyl)(propyl)amino]carbonyl}oxy)methyl 3,3-dimethylbutanoate]",MIC,Staph. aureus Smith [1],4 µg/mL
same,ED50,Staph. aureus Smith [2]; [3],0.43 mg/kg
same,ED50,Staph. aureus Smith [2]; [4],3.5 mg/kg
same,ED50,Staph. aureus Smith [2]; [5],3.5 mg/kg
same,ED50,Staph. aureus Smith [2]; [6],0.43 mg/kg
same,MIC,Staph.; [7],2 to 4 µg/mL
same,MIC,Staph.; [8],2 to 4 µg/mL
same,MIC,Staph.; [9],2 to 4 µg/mL
same,MIC,Staph.; [10],2 to 4 µg/mL
same,MIC,E. coli; [11],4 to 8 µg/mL
same,MIC,"E. coli; read-out: Range of MIC, E. coli (Water)",8 to 64 µg/mL
same,MIC,E. coli; [12],4 to 8 µg/mL
same,MIC,"E. coli; read-out: Range of MIC, E. coli (water)",8 to 64 µg/mL
"CCCN(CC(=O)Nc1cc(N(C)C)c2c(c1O)C(=O)C1=C(O)[C@@]3(O)C(=O)C(C(N)=O)=C(O)[C@@H](N(C)C)C3CC1C2)C(=O)OCc1oc(=O)oc1C (stereo partly drawn) [Example 108, (5-methyl-2-oxo-1,3-dioxol-4-yl)methyl 2-{[(7S,10aR)-9-(aminocarbonyl)-4,7-bis(dimethylamino)-1,8,10a,11-tetrahydroxy-10,12-dioxo-5,5a,6,6a,7,10,10a,12-octahydrotetracen-2-yl]amino}-2-oxoethyl(propyl)carbamate]",MIC,S. aureus GC 1131; pre-incubation in mouse serum,0.25 UG/ML
same,MIC,S. aureus GC 1131; pre-incubation in water,0.50 UG/ML
same,MIC,E. coli GC 2270; pre-incubation in mouse serum,0.50 UG/ML
same,MIC,E. coli GC 2270; pre-incubation in water,1 UG/ML
same,MIC,E. coli GC 1073; pre-incubation in mouse serum,0.50 UG/ML
same,MIC,E. coli GC 1073; pre-incubation in water,2 UG/ML
same,MIC,E. coli GC 4559; pre-incubation in mouse serum,0.50 UG/ML
same,MIC,E. coli GC 4559; pre-incubation in water,1 UG/ML
same,MIC,Salmonella spp. GC 235; pre-incubation in mouse serum,1 UG/ML
same,MIC,Salmonella spp. GC 235; pre-incubation in water,4 UG/ML
same,MIC,S. agalactiae GC 4564; pre-incubation in mouse serum,0.12 UG/ML
same,MIC,S. agalactiae GC 4564; pre-incubation in water,0.12 UG/ML
same,ED50 Staph Smith SIV,Staph. aureus Smith [2]; single intravenous dose (SIV),>2 mg/kg
same,ED50 Staph Smith SOD,Staph. aureus Smith [2]; single oral dose (SOD),>32 mg/kg
same,MIC,S. aureus GC 6335; pre-incubation in mouse serum,1 UG/ML
same,MIC,S. aureus GC 6335; pre-incubation in water,2 UG/ML
same,MIC,E. coli GC 2236; pre-incubation in mouse serum,0.50 UG/ML
same,MIC,E. coli GC 2236; pre-incubation in water,2 UG/ML
same,MIC,S. cholerasius GC 1355; pre-incubation in mouse serum,32 UG/ML
same,MIC,S. cholerasius GC 1355; pre-incubation in water,64 UG/ML
same,MIC,S. aureus GC 6467; pre-incubation in mouse serum,2 UG/ML
same,MIC,S. aureus GC 6467; pre-incubation in water,8 UG/ML
same,MIC,E. coli GC 3226; pre-incubation in mouse serum,0.50 UG/ML
same,MIC,E. coli GC 3226; pre-incubation in water,1 UG/ML
same,MIC,S. aureus GC 6466; pre-incubation in mouse serum,0.50 UG/ML
same,MIC,S. aureus GC 6466; pre-incubation in water,1 UG/ML
same,MIC,E. faecium GC 2243; pre-incubation in mouse serum,0.50 UG/ML
same,MIC,E. faecium GC 2243; pre-incubation in water,0.50 UG/ML
same,"Range of MIC, Staph (Mouse Serum)","Staph.; Mouse Serum, including MRSA, Table 1",0.25 to 2 µg/mL
same,"Range of MIC, Staph (Water)","Staph.; Water, including MRSA, Table 1",1 to 8 µg/mL
same,MIC,E. faecium GC 4556; pre-incubation in mouse serum,0.50 UG/ML
same,MIC,E. faecium GC 4556; pre-incubation in water,1 UG/ML
same,MIC,S. pneumoniae+ GC 4465; pre-incubation in mouse serum,1 UG/ML
same,MIC,S. pneumoniae+ GC 4465; pre-incubation in water,2 UG/ML
same,MIC,E. coli GC 4560; pre-incubation in mouse serum,0.12 UG/ML
same,MIC,E. coli GC 4560; pre-incubation in water,0.25 UG/ML
same,"Range of MIC, E. coli (Mouse Serum)","E. coli; Mouse Serum, Table 1",0.5 to 2 µg/mL
same,"Range of MIC, E. coli (Water)","E. coli; Water, Table 1",0.5 to 4 µg/mL
same,MIC,S. pneumoniae* GC 4465; pre-incubation in mouse serum,0.12 UG/ML
same,MIC,S. pneumoniae* GC 4465; pre-incubation in water,0.12 UG/ML
same,MIC,E. coli GC 2235; pre-incubation in mouse serum,0.50 UG/ML
same,MIC,E. coli GC 2235; pre-incubation in water,1 UG/ML
same,MIC,E. faecalis GC 4555; pre-incubation in mouse serum,0.50 UG/ML
same,MIC,E. faecalis GC 4555; pre-incubation in water,0.50 UG/ML
same,MIC,S. epidermidis GC 4935; pre-incubation in mouse serum,1 UG/ML
same,MIC,S. epidermidis GC 4935; pre-incubation in water,2 UG/ML
same,MIC,E. coli GC 6465; pre-incubation in mouse serum,8 UG/ML
same,MIC,E. coli GC 6465; pre-incubation in water,64 UG/ML
same,MIC,S. aureus GC 6469; pre-incubation in mouse serum,0.25 UG/ML
same,MIC,S. aureus GC 6469; pre-incubation in water,1 UG/ML
same,MIC,E. coli GC 2271; pre-incubation in mouse serum,0.50 UG/ML
same,MIC,E. coli GC 2271; pre-incubation in water,0.50 UG/ML
same,MIC,E. faecalis GC 2265; pre-incubation in mouse serum,1 UG/ML
same,MIC,E. faecalis GC 2265; pre-incubation in water,2 UG/ML
same,MIC,E. faecalis GC 2242; pre-incubation in mouse serum,0.50 UG/ML
same,MIC,E. faecalis GC 2242; pre-incubation in water,1 UG/ML
same,MIC,E. faecalis GC 2267; pre-incubation in mouse serum,1 UG/ML
same,MIC,E. faecalis GC 2267; pre-incubation in water,2 UG/ML
same,MIC,S. aureus GC 4536; pre-incubation in mouse serum,0.50 UG/ML
same,MIC,S. aureus GC 4536; pre-incubation in water,1 UG/ML
same,MIC,S. aureus GC 2216; pre-incubation in mouse serum,0.50 UG/ML
same,MIC,S. aureus GC 2216; pre-incubation in water,1 UG/ML
same,MIC,S. pyogenes GC 4563; pre-incubation in mouse serum,0.12 UG/ML
same,MIC,S. pyogenes GC 4563; pre-incubation in water,0.12 UG/ML
same,MIC,E. coli GC 2231; pre-incubation in mouse serum,2 UG/ML
same,MIC,E. coli GC 2231; pre-incubation in water,4 UG/ML
same,MIC,S. typhimurium GC 2172; pre-incubation in mouse serum,4 UG/ML
same,MIC,S. typhimurium GC 2172; pre-incubation in water,32 UG/ML
same,MIC,E. coli GC 2234; pre-incubation in mouse serum,0.50 UG/ML
same,MIC,E. coli GC 2234; pre-incubation in water,2 UG/ML
same,MIC,c. albicans GC 3066; pre-incubation in mouse serum,>64 UG/ML
same,MIC,c. albicans GC 3066; pre-incubation in water,>64 UG/ML
same,MIC,E. coli GC 2203; pre-incubation in mouse serum,0.50 UG/ML
same,MIC,E. coli GC 2203; pre-incubation in water,1 UG/ML
same,MIC,S. aureus GC 1079; pre-incubation in mouse serum,2 UG/ML
same,MIC,S. aureus GC 1079; pre-incubation in water,4 UG/ML
same,MIC,Salmonella spp. GC 566; pre-incubation in mouse serum,1 UG/ML
same,MIC,Salmonella spp. GC 566; pre-incubation in water,8 UG/ML
same,MIC,E. coli GC 2272; pre-incubation in mouse serum,0.25 UG/ML
same,MIC,E. coli GC 2272; pre-incubation in water,0.50 UG/ML
same,MIC,E. coli GC 2232; pre-incubation in mouse serum,1 UG/ML
same,MIC,E. coli GC 2232; pre-incubation in water,2 UG/ML
same,MIC,E. coli GC 2233; pre-incubation in mouse serum,0.50 UG/ML
same,MIC,E. coli GC 2233; pre-incubation in water,1 UG/ML
same,MIC,P. aeruginosa GC 2214; pre-incubation in mouse serum,16 UG/ML
same,MIC,P. aeruginosa GC 2214; pre-incubation in water,32 UG/ML
"CCCN(CC(=O)Nc1cc(N(C)C)c2c(c1O)C(=O)C1=C(O)[C@]3(O)C(=O)C(C(N)=O)=C(O)[C@@H](N(C)C)C3CC1C2)C(=O)OCOC(=O)C1CCCCC1 (stereo partly drawn) [Example 33, ({[(2-{[(7S,10aS)-9-(aminocarbonyl)-4,7-bis(dimethylamino)-1,8,10a,11-tetrahydroxy-10,12-dioxo-5,5a,6,6a,7,10,10a,12-octahydrotetracen-2-yl]amino}-2-oxoethyl)(propyl)amino]carbonyl}oxy)methyl cyclohexanecarboxylate]",MIC,Staph. aureus Smith [1],0.12 µg/mL
same,ED50,Staph. aureus Smith [2]; [3],0.48 mg/kg
same,ED50,Staph. aureus Smith [2]; [4],4.91 mg/kg
same,ED50,Staph. aureus Smith [2]; [5],4.91 mg/kg
same,ED50,Staph. aureus Smith [2]; [6],0.45 mg/kg
same,MIC,Staph.; [7],0.12 to 2 µg/mL
same,MIC,Staph.; [8],0.12 to 2 µg/mL
same,MIC,Staph.; [9],0.12 to 2 µg/mL
same,MIC,Staph.; [10],0.12 to 2 µg/mL
same,MIC,E. coli; [11],0.5 to 2 µg/mL
same,MIC,E. coli; [12],0.5 to 2 µg/mL
